From US4260630A, “Skin diseases” (priority 1977, dated 1981)

Assays:
Saccharomyces cerevisiae [1] = experiment: Induction of cytoplasmic "petite" mutations in yeast; settings: compared at the same survival level (10%)
Protocol: (§1) A wild-type strain 211-1aM (29) of Saccharomyces cerivisiae was used, and the following mutants derived from it: S24-12c rad2-20 deficient in excision repair and S25-13b rad9-4 likely to be blocked in a recombinational repair pathway; a double mutant S 2057NL-24 rad2-20 -rad9-4 clone B was obtained by tetrad analysis of a heterozygote [formula]
(§2) The media and culture conditions used were as described in D. Averbeck, E. Moustacchi, (1975) Biochim. Biophys. Acta, 395, 393-404.
(§3) 10^6 cells/ml in saline (0.9% NaCl) were treated for 30 minutes with the drugs at a final concentration of 10 μg/ml and 1.2% ethanol present.
A Philips HPW 125 culot Edison high pressure mercury lamp was used with maximal output at the wavelength 365 nm. The irradiation dose measured by actinometry was 10 J/m^2 per sec., using the following set up: 10 ml of actinometer solution (or the cell suspension, usually 1×10^6 cells/ml), stirred continuously by a magnetic stirrer, were irradiated at room temperature in an open Petri dish of 10 cm diameter at a distance of 10 cm from the center of the light bulb which was mounted horizontally. A 2 mm thick pyrex glass sheet (20×25 cm) was placed in the center of the light beam to cut out UV light of wavelength below 340 nm. […]

Saccharomyces cerevisiae [2] = system: Saccharomyces cerevisiae
Protocol: as §1, §2, §3
A Philips HPW 125 culot Edison high pressure mercury lamp was used with maximal output at the wavelength 365 nm. The irradiation dose measured by actinometry was 10 J/m^2 per sec., using the following set up: 10 ml of actinometer solution (or the cell suspension, usually 1×10^6 cells/ml), stirred continuously by a magnetic stirrer, were irradiated at room temperature in an open Petri dish of 10 cm diameter at a distance of 10 cm from the center of the light bulb which was mounted horizontally. A 2 mm thick pyrex glass sheet (20×25 cm) was placed in the center of the light beam to cut out UV light of wavelength below 340 nm. Overheating was prevented either by a continuous flow of compressed air between the light bulb and the glass or by a pyrex glass water filter of 3 cm total thickness. An accumulative irradiation dose was given to the same sample. After each dose 0.1 ml of irradiated cell suspension was taken, diluted and aliquots plated.

Saccharomyces cerevisiae [3] = experiment: Repair of photoinduced lesions in yeast (repair mutants, agar holding); format: cell-based
Text: Biophys. Acta, 395, 393-404.
Consequently, it appears that the excision repair pathway in wild type and rad9-4 cells is essential in AHR for both compounds.

yeast DNA [4] = experiment: Photobinding to yeast DNA in vivo (radiolabelled drug plus 365 nm light); format: binding, Saccharomyces cerevisiae
Protocol: (§4) The radioactivity of an aliquot (0.1 ml) of this solution was measured in 5 ml of scintillation mixture (Nuclear Entreprise, Ltd., Edinburgh, Scotland, NE 250).
(§5) For the in vivo determinations stationary phase cells of the haploid wild type strain N 123 were prepared as previously described.
(§6) 2 ml cell suspensions were exposed to several doses of 365 nm light. In parallel, non irradiated samples were incubated for the same periods. Immediately after incubation and/or irradiation, the samples were centrifuged and the pellet was washed 3 times with 5 ml of saline (0.9% NaCl). The washed cell pellet was resuspended in 1 ml of saline and 1 ml of 2 N NaOH was added in order to hydrolyze the RNA. The suspension was incubated overnight in the dark at room temperature, then cooled down on ice, and 2 ml of 50% TCA were added slowly. The samples were left 20 minutes on ice and the precipitated DNA was filtered on a glass fiber filter disc (Whatman GF/A, 2.1 cm diameter). In some cases the filtrate containing the acid-soluble material was kept aside, and the radioactivity of an aliquot added to 5 ml of NE250 scintillation mixture measured. The precipitate was washed 3 times with 5 ml of 5% cold TCA and 5 ml of 70% ethanol. The filters were then dried and the radioactivity measured in plastic counting vials containing 5 ml of scintillation mixture (NE 250) in a Tricarb Packard scintillation spectrophotometer.

yeast DNA [5] = experiment: Melting and reassociation (cross-link formation) of yeast DNA treated in vitro plus 365 nm light; format: biochemical
Protocol: Measurement of the melting and reassociation characteristics of yeast DNA:
Biophys. […] The fractions containing the nuclear DNA were pooled and dialysed against a 0.1 M, pH 7 phosphate buffer. […] Unirradiated samples of DNA with or without the drugs were taken as references.
The cross-links formation of the two furocoumarins with native yeast DNA was tested by measuring the denaturation and renaturation pattern.

calf thymus DNA = experiment: Photobinding to native calf thymus DNA in vitro; format: binding
Protocol: These determinations were done in vitro and in vivo. […] The thickness of the irradiated sample was 1 mm. After irradiation, the solution was diluted by a factor of 2, and NaCl was added to a final concentration of 1 M. The DNA was precipitated with 2 volumes of cold pure ethanol. The samples were left overnight in the cold at -20° C. The precipitate was then washed by centrifugation three times with 3 ml of 70% ethanol and redissolved in 3 ml of water. The DNA recovery was checked by determination of the optical density of the solution at 260 nm.

mice = settings: hairless mice; cited from earlier work
yeast RNA = experiment: Photobinding to yeast RNA in vivo (radiolabelled drug plus 365 nm light); format: binding, Saccharomyces cerevisiae; settings: for cpm for 10^8 cells: RNA; for Molecules 8-MOP/μg DNA / μg 8-MOP/μg DNA: binding to RNA
Protocol: as §4, §5, §6

[6] = 8-MOP, 15 min, 18.9 × 10^4 ergs.mm^-2 365 nm
[7] = 8-MOP, 30 min, 37.8 × 10^4 ergs.mm^-2 365 nm
[8] = 8-MOP, 60 min, 75.6 × 10^4 ergs.mm^-2 365 nm
[9] = 8-MOP, 90 min, 113.4 × 10^4 ergs.mm^-2 365 nm
[10] = 8-MOP, 120 min, 151.2 × 10^4 ergs.mm^-2 365 nm
[11] = 15 min, 18.9 × 10^4 ergs.mm^-2 365 nm
[12] = 30 min, 37.8 × 10^4 ergs.mm^-2 365 nm
[13] = 60 min, 75.6 × 10^4 ergs.mm^-2 365 nm
[14] = 90 min, 113.4 × 10^4 ergs.mm^-2 365 nm
[15] = 120 min, 151.2 × 10^4 ergs.mm^-2 365 nm
[16] = equimolar concentration to 3-CPs
[17] = 7.5 × 10^-5, 30 min, 37.8 erg. cm^-2 365 nm (so in the source)
[18] = 7.5 × 10^-5, 60 min, 75.6 erg. cm^-2 365 nm (so in the source)
[19] = 7.5 × 10^-5, 90 min, 113.4 erg. cm^-2 365 nm (so in the source)
[20] = 7.5 × 10^-5, 120 min, 151.2 erg. cm^-2 365 nm (so in the source)
[21] = 7.5 × 10^-5, 180 min, 226.8 erg. cm^-2 365 nm (so in the source)

In the case of `COc1c2occc2cc2ccc(=O)oc12` [Example 8-MOP, 8-methoxypsoralen, reference compound], the “induction of cytoplasmic "petite" mutations” value (Saccharomyces cerevisiae [1]) is reported as “less reactive”, the “photosensitization of cells compared with 3-CPs or angelicin” value (Saccharomyces cerevisiae [2]) is reported as “more photosensitized” and the survivors (Saccharomyces cerevisiae [2]; saline, 5 min) is reported as 10^-5. For the same molecule, the “dark repair by strain defective in excision” value (Saccharomyces cerevisiae [3]; agar holding) was “unable to perform a dark repair”, the “interaction between rad2 and rad9 repair pathways” value (Saccharomyces cerevisiae [3]; plus 365 nm light) was “additive interaction” and the “kinetics of agar holding recovery (AHR)” value (Saccharomyces cerevisiae [3]; wild-type cells) was “same kinetics of AHR”. For the same molecule, the “cpm for 10^8 cells” value (yeast DNA [4]; [6]) was 1161 cpm for 10^8 cells, the “cpm for 10^8 cells” value (yeast DNA [4]; [7]) was 1474 cpm for 10^8 cells and the “cpm for 10^8 cells” value (yeast DNA [4]; [8]) was 2805 cpm for 10^8 cells. For the same molecule, the “cpm for 10^8 cells” value (yeast DNA [4]; [9]) was 5582 cpm for 10^8 cells, the “cpm for 10^8 cells” value (yeast DNA [4]; [10]) was 5572 cpm for 10^8 cells and the “Molecules 8-MOP/μg DNA” value (yeast DNA [4]; 15-120 min, no 365 nm light) was 0.034 Molecules 8-MOP/μg DNA × 10^14. For the same molecule, the “cpm for 10^8 cells” value (yeast DNA [4]; 15-120 min, no 365 nm light) was 404.75 cpm for 10^8 cells, the “μg 8-MOP/μg DNA” value (yeast DNA [4]; 15-120 min, no 365 nm light) was 0.126 μg 8-MOP/μg DNA × 10^-2 and the “molecules linked to DNA per cell” value (yeast DNA [4]; 18.9×10^3 J/m^2, 5×10^-5 M) was 0.5×10^6 molecules per cell. The “binding to DNA in vivo compared with in vitro” value (yeast DNA [4]; 365 nm light) was “much higher in the in vivo condition than in vitro”, the “Molecules 8-MOP/μg DNA” value (yeast DNA [4]; [11]) was 0.10 Molecules 8-MOP/μg DNA × 10^14 and the “μg 8-MOP/μg DNA” value (yeast DNA [4]; [11]) was 0.36 μg 8-MOP/μg DNA × 10^-2. The “Molecules 8-MOP/μg DNA” value (yeast DNA [4]; [12]) was 0.13 Molecules 8-MOP/μg DNA × 10^14, the “μg 8-MOP/μg DNA” value (yeast DNA [4]; [12]) was 0.46 μg 8-MOP/μg DNA × 10^-2 and the “Molecules 8-MOP/μg DNA” value (yeast DNA [4]; [13]) was 0.24 Molecules 8-MOP/μg DNA × 10^14. The “μg 8-MOP/μg DNA” value (yeast DNA [4]; [13]) was 0.86 μg 8-MOP/μg DNA × 10^-2, the “Molecules 8-MOP/μg DNA” value (yeast DNA [4]; [14]) was 0.48 Molecules 8-MOP/μg DNA × 10^14 and the “μg 8-MOP/μg DNA” value (yeast DNA [4]; [14]) was 1.72 μg 8-MOP/μg DNA × 10^-2. The “Molecules 8-MOP/μg DNA” value (yeast DNA [4]; [15]) was 0.48 Molecules 8-MOP/μg DNA × 10^14, the “μg 8-MOP/μg DNA” value (yeast DNA [4]; [15]) was 1.72 μg 8-MOP/μg DNA × 10^-2 and the “light dose dependence of binding with DNA” value (yeast DNA [4]; [16]) was “increases linearly in the range of light doses used”. For the same molecule, the “reassociation of DNA after heat denaturation” value (yeast DNA [5]) was “a fraction of the DNA is capable to renature”, the “μg 8-MOP/μDNA” value (calf thymus DNA; 7.5 × 10^-5, 0-180 min incub. (dark)) was 0.031×10^-4 μg 8-MOP/μDNA and the “Binding yield 8-MOP molecules/nucleotide” value (calf thymus DNA; [17]) was 1/900. The “μg 8-MOP/μDNA” value (calf thymus DNA; [17]) was 7.3×10^-4 μg 8-MOP/μDNA, the “Binding yield 8-MOP molecules/nucleotide” value (calf thymus DNA; [18]) was 1/532 and the “μg 8-MOP/μDNA” value (calf thymus DNA; [18]) was 12.4×10^-4 μg 8-MOP/μDNA. The “Binding yield 8-MOP molecules/nucleotide” value (calf thymus DNA; [19]) was 1/428, the “μg 8-MOP/μDNA” value (calf thymus DNA; [19]) was 15.4×10^-4 μg 8-MOP/μDNA and the “Binding yield 8-MOP molecules/nucleotide” value (calf thymus DNA; [20]) was 1/386. For the same molecule, the “μg 8-MOP/μDNA” value (calf thymus DNA; [20]) was 17.1×10^-4 μg 8-MOP/μDNA, the “Binding yield 8-MOP molecules/nucleotide” value (calf thymus DNA; [21]) was 1.256 molecules/nucleotide and the “μg 8-MOP/μDNA” value (calf thymus DNA; [21]) was 25.8×10^-4 μg 8-MOP/μDNA. For the same molecule, the “cpm/μg DNA” value (calf thymus DNA; 8-MOP 7.5 × 10^-5, 0-180 min incub. (dark)) was 0.24 cpm/μg DNA, the “cpm/μg DNA” value (calf thymus DNA; 8-MOP 7.5 × 10^-5, 30 min, 37.8 erg. cm^-2 365 nm (so in the source)) was 56.3 cpm/μg DNA and the “cpm/μg DNA” value (calf thymus DNA; 8-MOP 7.5 × 10^-5, 60 min, 75.6 erg. cm^-2 365 nm (so in the source)) was 95.7 cpm/μg DNA. The “cpm/μg DNA” value (calf thymus DNA; 8-MOP 7.5 × 10^-5, 90 min, 113.4 erg. cm^-2 365 nm (so in the source)) was 118.8 cpm/μg DNA, the “cpm/μg DNA” value (calf thymus DNA; 8-MOP 7.5 × 10^-5, 120 min, 151.2 erg. cm^-2 365 nm (so in the source)) was 131.5 cpm/μg DNA and the “cpm/μg DNA” value (calf thymus DNA; 8-MOP 7.5 × 10^-5, 180 min, 226.8 erg. cm^-2 365 nm (so in the source)) was 198.5 cpm/μg DNA. For the same molecule, the “cancerogenic power in combination with U.V. radiation” value (mice) was “high cancerogenic power”, the “photoaffinity for RNA” value (yeast RNA) was “relatively low photoaffinity for RNA” and the “cpm for 10^8 cells” value (yeast RNA; [6]) was 7400 cpm for 10^8 cells. The “cpm for 10^8 cells” value (yeast RNA; [7]) was 12920 cpm for 10^8 cells, the “cpm for 10^8 cells” value (yeast RNA; [8]) was 23580 cpm for 10^8 cells and the “cpm for 10^8 cells” value (yeast RNA; [9]) was 34150 cpm for 10^8 cells. The “cpm for 10^8 cells” value (yeast RNA; [10]) was 44060 cpm for 10^8 cells, the “cpm for 10^8 cells” value (yeast RNA; 15-120 min, no 365 nm light) was 3805 cpm for 10^8 cells and the “Molecules 8-MOP/μg DNA” value (yeast RNA; 15-120 min, no 365 nm light) was 0.033 Molecules 8-MOP/μg DNA × 10^14. For the same molecule, the “μg 8-MOP/μg DNA” value (yeast RNA; 15-120 min, no 365 nm light) was 0.12 μg 8-MOP/μg DNA × 10^-2, the “Molecules 8-MOP/μg DNA” value (yeast RNA; [11]) was 0.064 Molecules 8-MOP/μg DNA × 10^14 and the “μg 8-MOP/μg DNA” value (yeast RNA; [11]) was 0.228 μg 8-MOP/μg DNA × 10^-2. The “Molecules 8-MOP/μg DNA” value (yeast RNA; [12]) was 0.11 Molecules 8-MOP/μg DNA × 10^14, the “μg 8-MOP/μg DNA” value (yeast RNA; [12]) was 0.40 μg 8-MOP/μg DNA × 10^-2 and the “Molecules 8-MOP/μg DNA” value (yeast RNA; [13]) was 0.20 Molecules 8-MOP/μg DNA × 10^14. For the same molecule, the “μg 8-MOP/μg DNA” value (yeast RNA; [13]) was 0.73 μg 8-MOP/μg DNA × 10^-2, the “Molecules 8-MOP/μg DNA” value (yeast RNA; [14]) was 0.29 Molecules 8-MOP/μg DNA × 10^14 and the “μg 8-MOP/μg DNA” value (yeast RNA; [14]) was 1.05 μg 8-MOP/μg DNA × 10^-2. For the same molecule, the “Molecules 8-MOP/μg DNA” value (yeast RNA; [15]) was 0.38 Molecules 8-MOP/μg DNA × 10^14, the “μg 8-MOP/μg DNA” value (yeast RNA; [15]) was 1.36 μg 8-MOP/μg DNA × 10^-2 and the “light dose dependence of binding with RNA” value (yeast RNA; [16]) was “increases linearly in the range of light doses used”.
